Results: ChEMBL document CHEMBL1145732, “Non-imidazole heterocyclic histamine H3 receptor antagonists” (Bioorg Med Chem Lett, 2003)

How the values were obtained:
Histamine H3 receptor = Histamine H3 receptor (Homo sapiens, UniProt Q9Y5N1); assay: Binding affinity towards human Histamine H3 receptor using [3H]N-methyl-histamine as radioligand
[1] = Half-life was determined; format: ADME; conditions: human
Rattus norvegicus = species: Rattus norvegicus; assay: Compound was evaluated in a functional assay for determining rat pA2; conditions: read-out: pA2 (converted)
SK-N-MC = assay: Compound was evaluated in a functional assay against […] cells stably transfected with the human H3 receptor; format: cell-based; conditions: read-out: pA2 (converted)
Caco-2 = assay: Permeability was evaluated using Caco-2 cells; format: functional, cell-based; conditions: Homo sapiens

Sequence of Histamine H3 receptor (Q9Y5N1 whole entry): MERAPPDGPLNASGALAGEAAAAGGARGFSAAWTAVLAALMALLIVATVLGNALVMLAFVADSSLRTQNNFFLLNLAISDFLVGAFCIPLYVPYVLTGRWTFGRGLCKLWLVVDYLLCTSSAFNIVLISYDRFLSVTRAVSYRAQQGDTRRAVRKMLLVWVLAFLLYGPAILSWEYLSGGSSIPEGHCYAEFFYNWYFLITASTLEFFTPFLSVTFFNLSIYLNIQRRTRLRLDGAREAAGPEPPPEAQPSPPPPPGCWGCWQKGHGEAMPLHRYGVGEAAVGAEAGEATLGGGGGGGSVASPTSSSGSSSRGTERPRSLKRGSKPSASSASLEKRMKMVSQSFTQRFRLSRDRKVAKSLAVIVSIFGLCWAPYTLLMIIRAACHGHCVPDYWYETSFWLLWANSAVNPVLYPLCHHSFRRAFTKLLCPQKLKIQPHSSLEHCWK

| Ki (Histamine H3 receptor) [nM] | Structure (SMILES) | further results |
| --- | --- | --- |
| 11 | Cc1cc(OCCCN2CCCCC2)ccc1-c1cn2ccccc2c1C |  |
| 37 | c1ccc(CCc2c(-c3ccc(OCCCN4CCCCC4)cc3)cn3ccccc23)cc1 |  |
| 308 | c1cc(OCCCN2CCCCC2)cc(-c2cc3ccccn3c2)c1 |  |
| 11 | c1ccn2nc(-c3ccc(OCCCN4CCCCC4)cc3)cc2c1 |  |
| 2 | Cc1c(-c2ccc(OCCCN3CCCCC3)cc2)cc2ccccn12 | half-life [1]: 54 min |
| 236 | c1ccc(-c2cc3ccccn3c2)c(OCCCN2CCCCC2)c1 |  |
| 40 | Cc1cccn2cc(-c3ccc(OCCCN4CCCCC4)cc3)cc12 |  |
| 152 | Cc1cc(OCCCN2CCCCC2)ccc1-c1cc2ccccn2c1 |  |
| 16 | Cc1c(-c2ccc(OCCCN3CCCCC3)cc2)cn2ccccc12 |  |
| 40 | Cc1ccn2cc(-c3ccc(OCCCN4CCCCC4)cc3)cc2c1 |  |
| 16 | CS(=O)(=O)n1c(-c2ccc(OCCCN3CCCCC3)cc2)cc2ccccc21 |  |
| 13 | c1ccn2cc(-c3ccc(OCCCN4CCCCC4)cc3)cc2c1 | half-life [1]: 10 min; Kb (Rattus norvegicus): 19.5 nM; Kb (SK-N-MC): 3.16 nM; Papp (Caco-2): 0.14 ×10⁻⁶ cm/s |
| 5 | CCc1c(-c2ccc(OCCCN3CCCCC3)cc2)cc2ccccn12 |  |
| 47 | c1ccc2[nH]c(-c3ccc(OCCCN4CCCCC4)cc3)cc2c1 |  |
| 46 | Cc1cccc2cc(-c3ccc(OCCCN4CCCCC4)cc3)cn12 |  |
| 40 | c1ccc(-c2c(-c3ccc(OCCCN4CCCCC4)cc3)cn3ccccc23)cc1 |  |
| 19 | CCc1c(-c2ccc(OCCCN3CCCCC3)cc2)cn2ccccc12 |  |
| 28 | Cc1ccc2cc(-c3ccc(OCCCN4CCCCC4)cc3)cn2c1 |  |
